From ChEMBL document CHEMBL6096628, “Discovery of a Highly Potent and Selective BRD9 PROTAC Degrader Based on E3 Binder Investigation for the Treatment of Hematological Tumors” (J Med Chem, 2024)

Tests used:
[1] = target: Protein cereblon/Bromodomain-containing protein 9 (Homo sapiens, UniProt Q9H8M2+Q96SW2); experiment: PROTAC activity at CRBN/BRD9 in human MV4-11 cells assessed as induction of BRD9 degradation at 0.33 nM measured after 4 hrs by Western blot analysis relative to control; assay type: cell-based
Sequence of Protein cereblon/Bromodomain-containing protein 9 (Q96SW2 whole entry, looked up): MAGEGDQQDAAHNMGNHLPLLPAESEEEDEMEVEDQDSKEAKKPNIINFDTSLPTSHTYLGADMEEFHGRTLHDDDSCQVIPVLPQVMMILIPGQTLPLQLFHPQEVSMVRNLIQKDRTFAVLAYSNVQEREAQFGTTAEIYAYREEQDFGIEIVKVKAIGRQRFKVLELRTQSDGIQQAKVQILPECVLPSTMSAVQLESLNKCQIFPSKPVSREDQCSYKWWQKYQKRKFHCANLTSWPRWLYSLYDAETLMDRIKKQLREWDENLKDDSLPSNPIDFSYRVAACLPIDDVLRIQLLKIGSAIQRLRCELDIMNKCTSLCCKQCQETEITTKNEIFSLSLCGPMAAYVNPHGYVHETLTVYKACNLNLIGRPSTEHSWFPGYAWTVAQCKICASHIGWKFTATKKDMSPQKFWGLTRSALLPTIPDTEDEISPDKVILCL
Sequence of Protein cereblon/Bromodomain-containing protein 9 (Q9H8M2 whole entry, looked up): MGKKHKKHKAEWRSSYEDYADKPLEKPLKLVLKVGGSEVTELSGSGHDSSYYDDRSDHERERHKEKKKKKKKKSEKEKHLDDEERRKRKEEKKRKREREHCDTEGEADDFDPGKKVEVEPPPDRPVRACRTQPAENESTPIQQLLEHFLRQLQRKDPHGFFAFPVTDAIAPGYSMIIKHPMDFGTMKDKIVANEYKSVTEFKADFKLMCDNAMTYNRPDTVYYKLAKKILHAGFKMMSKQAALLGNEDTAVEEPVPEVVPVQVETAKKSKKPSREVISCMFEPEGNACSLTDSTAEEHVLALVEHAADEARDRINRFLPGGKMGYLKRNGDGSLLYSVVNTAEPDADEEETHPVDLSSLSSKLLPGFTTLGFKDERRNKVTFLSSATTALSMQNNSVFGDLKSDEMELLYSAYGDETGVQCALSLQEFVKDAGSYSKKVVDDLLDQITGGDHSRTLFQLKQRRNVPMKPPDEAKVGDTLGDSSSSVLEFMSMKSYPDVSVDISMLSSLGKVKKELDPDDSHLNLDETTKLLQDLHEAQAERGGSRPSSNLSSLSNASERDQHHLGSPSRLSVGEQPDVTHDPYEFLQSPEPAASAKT

MV4-11 = experiment: Induction of apoptosis in human MV4-11 cells assessed as necrotic cells at 0.1 nM incubated for 48 hrs by Annexin V-FITC/PI staining based flow cytometric analysis (reference value: 0.07 %); assay type: functional

Q: With `COc1cc(-c2cn(C)c(=O)c3ccccc23)cc(OC)c1CN1CCC(CN2CCC(c3ccc4c5c(cccc35)C(=O)N4C3CCC(=O)NC3=O)CC2)CC1` (configuration not stated) as the molecule, how does the Activity [1] read?
A: 92%

Q: What about the Activity (MV4-11) of the same molecule?
A: 0.03%
